Activity calls are given as the source filed them.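 The calls were made as follows: active = maximal percent inhibition of the deubiquitinase OTUD3 of at least 30% across the tested doses; inactive = the rest.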
These compounds were tested against OTU domain-containing protein 3 (Homo sapiens) (UniProt Q5T2D3) (assay: Validation of screening hits, potency titration, in vitro enzymatic, OTU domain-containing protein 3 DUB inhibitors (AID 1645868)). Conditions: purified OTUD3, ubiquitin-rhodamine cleavage fluorescence, 2 h.
Sequence of OTU domain-containing protein 3 (Homo sapiens) (Q5T2D3 whole entry, looked up, the tested form may be a part): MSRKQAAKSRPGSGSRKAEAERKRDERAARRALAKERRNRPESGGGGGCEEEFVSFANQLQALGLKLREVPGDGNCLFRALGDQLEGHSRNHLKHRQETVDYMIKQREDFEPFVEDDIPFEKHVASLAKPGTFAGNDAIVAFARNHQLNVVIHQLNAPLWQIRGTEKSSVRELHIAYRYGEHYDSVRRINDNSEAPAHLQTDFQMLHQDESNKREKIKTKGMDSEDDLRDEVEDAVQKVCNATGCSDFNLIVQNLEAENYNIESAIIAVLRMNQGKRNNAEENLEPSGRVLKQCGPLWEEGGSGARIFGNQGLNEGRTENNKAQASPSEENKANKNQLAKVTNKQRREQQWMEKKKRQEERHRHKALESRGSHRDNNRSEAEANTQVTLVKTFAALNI
For `CC1CS(=O)(=O)N(c2ccc(C(=O)Nc3ccc4c(c3)OCCO4)cc2)C1=O` (stereo unspecified), the IC50 was 28.5 µM.
With `Cc1ccc(S(=O)(=O)N(C)C)cc1NC(=O)Cc1ccc(Cl)c(Cl)c1` the IC50 was > 50 µM (inactive).
`c1ccc(-c2ccc(NCc3ccc4c(c3)OCO4)nn2)cc1` was tested, and the IC50 was 23.1 µM.
For `COc1ccc(S(=O)(=O)N2CCN3Cc4ccccc4N(C)CC3C2)cc1` (stereo unspecified), the IC50 was > 50 µM (inactive).
With `O=C(Nc1ccc(SCc2nnc(-c3ccccc3)o2)cc1)C1CC1` the IC50 was > 50 µM (inactive).
In the case of `O=C(Nc1ccccc1)C1CCCN(C(=O)c2cc3ccccc3[nH]2)C1` (stereo unspecified), the IC50 is reported as 43.2 µM.
In the case of `COc1ccc(-c2nnc(SCc3ccccc3C#N)o2)c(OC)c1`, the IC50 is reported as > 50 µM (inactive).
In the case of `O=C(NCCCN1CCc2ccccc2C1)c1cc2c(s1)CS(=O)(=O)C2`, the IC50 is reported as > 50 µM (inactive).
In the case of `NS(=O)(=O)c1cccc(NC(=O)CN2CCCc3ccccc32)c1`, the IC50 is reported as > 50 µM (inactive).
With `COc1cccc2sc(N3CCN(c4nc5ccccc5s4)CC3)nc12` the IC50 was > 50 µM (inactive).
With `COc1ccccc1-n1nnc(C(=O)Nc2ccc(Oc3ccccc3)cc2)c1C` the IC50 was > 50 µM (inactive).
`CCCCn1c(=O)c(CCC(=O)OCC(=O)Nc2ccc3c(c2)OCCO3)nc2ccccc21` was tested, and the IC50 was > 50 µM (inactive).
For `CCCc1nc2sc3c(NCCc4ccc(OC)c(OC)c4)ncnc3c2c2c1CCC2`, the IC50 was > 50 µM (inactive).
Compound `Cc1ccc(-n2nc(C(=O)Nc3ccc(C)cn3)c3ncn(C)c(=O)c32)cc1` has an IC50 of 2.1 µM.
With `COC1=C(C2=C(OC)C(=O)c3cc4c(c(O)c3C2=O)C(=O)OC(C)C4)C(=O)c2c(cc3c(c2O)C(=O)OC(C)C3)C1=O` (stereo unspecified) the IC50 was 3.28 µM.
In the case of `CC(C)CC(NC(=O)c1ccc(Cl)cc1Cl)c1nc2ccccc2[nH]1` (stereo unspecified), the IC50 is reported as > 50 µM (inactive).
With `O=C(Nc1cccc(Cl)c1)N1CCC(c2cc(-c3ccco3)n[nH]2)CC1` the IC50 was > 50 µM (inactive).
In the case of `O=C(Nc1nnc(C2CC2)s1)c1ccc(OCC2CCCO2)cc1` (stereo unspecified), the IC50 is reported as > 50 µM (inactive).
`CC(C)(C)c1cc(C[C@@H]2C[C@H](NC(=O)N3CCOCC3)C2(C)C)no1` was tested, and the IC50 was > 50 µM (inactive).
`Cc1ccc2c(=O)c3c([nH]c2c1C)CCN(CC(=O)NCc1ccccc1)C3` was tested, and the IC50 was > 50 µM (inactive).
For `CCCN1CCN(C(=O)c2cc(NC(=O)C3CCC3)cc3nc(C)ccc23)CC1`, the IC50 was > 50 µM (inactive).
In the case of `Fc1ccc(CN2CCc3nc4cccnc4cc3C2)cc1`, the IC50 is reported as > 50 µM (inactive).
In the case of `CN(Cc1ccccc1)S(=O)(=O)c1ccc2[nH]cc(C(=O)NCc3cccs3)c(=O)c2c1`, the IC50 is reported as 3.15 µM.
In the case of `CCn1c(SCc2cccc(C)c2)nnc1-c1cnccn1`, the IC50 is reported as > 50 µM (inactive).
`COc1ccc(NCc2cc(=O)n3[nH]c(NCc4ccc(C(C)C)cc4)nc3n2)cc1` was tested, and the IC50 was > 50 µM (inactive).
In the case of `COc1ccccc1CNC(=O)Nc1cccc2ccccc12`, the IC50 is reported as 44.7 µM.
For `COc1ccc2nc(NC(=O)C(CC(C)C)NS(=O)(=O)c3ccc4c(c3)CCN4C(C)=O)sc2c1` (stereo unspecified), the IC50 was 26.4 µM.
For `O=C(CSc1nnc2n1CCCCC2)Nc1ccc2[nH]c(=O)[nH]c2c1`, the IC50 was > 50 µM (inactive).
In the case of `Cc1ccccc1C(=O)OCCN1C(=O)c2cccc3c(N4CCOCC4)ccc(c23)C1=O`, the IC50 is reported as > 50 µM (inactive).
With `O=C(Nc1ccc(N2CCOCC2)cc1)c1ccc(-c2ccc(N3CCCC3)nn2)cc1` the IC50 was > 50 µM (inactive).
In the case of `CC(=O)Nc1cccc(NC(=O)COc2cccc3ccc(N4CCCC4)nc23)c1`, the IC50 is reported as > 50 µM (inactive).
Compound `O=C1N[C@@H](Cc2ccccc2)C(=O)N2[C@H]3Nc4ccccc4[C@@]3([C@]34C[C@H]5C(=O)N[C@@H](Cc6ccccc6)C(=O)N5[C@H]3Nc3ccccc34)C[C@@H]12` has an IC50 of 47.6 µM.
`Cc1ccc2[nH]c3c(=O)n(CC4CCCO4)cnc3c2c1` (stereo unspecified) was tested, and the IC50 was 44.9 µM.
Work on `O=[N+]([O-])c1ccc(N2CCN(c3ncnc4c3[nH]c3ccc(F)cc34)CC2)cc1` yielded an IC50 of 2.45 µM.
`COc1ccc2c(C)c(CC(=O)N3CCC[C@H]3C(=O)O)c(=O)oc2c1C` was tested, and the IC50 was > 50 µM (inactive).
With `CC1=C(c2ccc(C)c(C)c2)S(=O)(=O)NC1=NCC(=O)NCCc1ccc(C)cc1` the IC50 was > 50 µM (inactive).
`Fc1ccccc1N1CCN(c2ncc3c(n2)CCN(Cc2ccccn2)C3)CC1` was tested, and the IC50 was > 50 µM (inactive).
For `COc1ccc(-n2ccn3c(CCC(=O)NCc4ccc(F)cc4)nnc3c2=O)cc1`, the IC50 was 33.3 µM.
In the case of `CCOc1ccc(-n2c(C)cc(/C=C(\C#N)c3nc4ccccc4[nH]3)c2C)cc1`, the IC50 is reported as > 50 µM (inactive).
`CCOc1ccccc1C(=O)Oc1ccc2c(C)cc(=O)oc2c1` showed an IC50 of 32.4 µM.
With `Cc1ccc(NC(=O)c2nnn(-c3ccccc3Br)c2C)cc1C` the IC50 was > 50 µM (inactive).
`CCCC[C@@H](C)/C=C(C)/C=C(\C)C(=O)NC1=C[C@](O)(/C=C/C=C/C=C/C(=O)NC2=C(O)CCC2=O)[C@@H]2O[C@@H]2C1=O` gave an IC50 of 3.28 µM.
In the case of `CCOC(=O)c1cn(C2CC2)c2cc(N3CCNCC3)c([N+](=O)[O-])cc2c1=O`, the IC50 is reported as > 50 µM (inactive).
For `O=C(Nc1cc(Cl)cc(Cl)c1)c1csnn1`, the IC50 was 32.8 µM.
For `COc1ccc(NC(=O)c2ccc(-n3nnnc3SC)cc2)cc1Cl`, the IC50 was > 50 µM (inactive).
`CCC(=O)Nc1ccccc1-c1nc2ccccc2n(CC(=O)Nc2cc(OC)ccc2OC)c1=O` showed an IC50 of 19 µM.
